Experimental findings from patent publication US20240150293A1, “SPIROCYCLOHEXANE DERIVATIVES, PHARMACEUTICAL COMPOSITIONS CONTAINING THEM AND THEIR USES AS ANTI-APOPTOTIC INHIBITORS” (LES LABORATOIRES SERVIER, priority 2021, published 2024) are described below.

Like-named read-outs stand apart in the source and are kept apart here.

For test [1], the target named is Cy5-labelled Mcl1 (amino acids 171-321) C286S protein (UniProtKB Q07820) (Homo sapiens (Human), UniProt Q07820, C286S). Put plainly: Inhibition of Mcl-1 by the fluorescence quenching assay (Example A, Method B). It counts as binding. In a few lines: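 Cy5-labelled Mcl1 171-321 C286S (1 nM) quenched by TQ5WS-labelled PUMA peptide (10, 20 or 400 nM); displacement raises fluorescence (Ex 620/Em 680 nm). Buffer 10 mM HEPES, 150 mM NaCl, 0.05% Tween 20, pH 7.4, 5% DMSO; 2 h at room temperature, 11-point curves, IC50 converted to Ki (cKi/eKi).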

The next test deals with NCI-H929 cell lines. Put plainly: In vitro cytotoxicity, CellTiter-Glo (CTG) assay (Example B, Method B). It counts as cell-based. Conditions: Homo sapiens, NCI-H929, 48 h, NCI-H929 cells, 48 h incubation, read-out: C50. The method in brief: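 NCI-H929 cells exposed to an 11-point compound series from 10 mM DMSO stocks (top final 30 μM) for 48 h at 37° C., 5% CO2. Viability measured as ATP by CellTiter-Glo luminescence; C50 is the concentration giving 50% cellular viability.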
In general terms: ATP-based viability assays read luminescence as a measure of living cells.

Cy5-labelled Mcl1 (amino acids 171-321) C286S protein, sequence (Q07820 171-321 C286S): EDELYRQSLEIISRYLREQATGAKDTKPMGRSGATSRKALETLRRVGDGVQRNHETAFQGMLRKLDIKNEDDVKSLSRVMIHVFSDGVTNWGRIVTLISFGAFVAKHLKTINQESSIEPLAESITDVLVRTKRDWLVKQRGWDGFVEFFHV

As to `C[C@@H](COc1ccnc2c1[C@H](C)CCC2)C[C@H]1Cc2cc3c(cc2[C@]12CC[C@@](Nc1cccc(Cl)c1)(C(=O)O)CC2)OCC(C)(C)CO3` [Example 981, (1r,4S,8′S)-4-(3-chloroanilino)-3′,3′-dimethyl-8′-[(2R)-2-methyl-3-{[(5R)-5-methyl-5,6,7,8-tetrahydroquinolin-4-yl]oxy}propyl]-3′,4′,8′,9′-tetrahydro-2′H-spiro[cyclohexane-1,7′-indeno[5,6-b][1,4]dioxepine]-4-carboxylic acid], the Ki (in general, the equilibrium dissociation constant of an inhibitor or competing ligand from its target) in test [1] turned out to be 0.0238 nM. In the test with NCI-H929 cell lines, the IC50 was determined as 86 nM.

As to `COCC(=O)OC(C)OC(=O)[C@]1(Nc2cccc(Cl)c2)CC[C@@]2(CC1)c1cc3c(cc1C[C@@H]2C[C@@H](C)COc1ccnc2c1[C@H](C)CCC2)OCO3` (stereo partly drawn) [Example 941, 1-[(methoxyacetyl)oxy]ethyl (1r,4S,6′S)-4-(3-chloroanilino)-6′-[(2R)-2-methyl-3-{[(5R)-5-methyl-5,6,7,8-tetrahydroquinolin-4-yl]oxy}propyl]-6′,7′-dihydro-2′H-spiro[cyclohexane-1,5′-indeno[5,6-d][1,3]dioxole]-4-carboxylate], the inhibition constant Ki in test [1] was determined as 3.94 nM. Further, the IC50 with NCI-H929 cell lines stood at 46.2 nM.

Consider `C[C@@H](COc1ccnc2c1[C@H](C)CCC2)C[C@H]1Cc2cc3c(cc2[C@]12CC[C@@](Nc1cccc(Cl)c1)(C(=O)O)CC2)O[C@@H](C)CCO3` [Example 984, (1r,4S,4'S,8′S)-4-(3-chloroanilino)-4′-methyl-8′-[(2R)-2-methyl-3-{[(5R)-5-methyl-5,6,7,8-tetrahydroquinolin-4-yl]oxy}propyl]-3′,4′,8′,9′-tetrahydro-2′H-spiro[cyclohexane-1,7′-indeno[5,6-b][1,4]dioxepine]-4-carboxylic acid], for which the Ki in test [1] turned out to be 0.00728 nM. For the same molecule, the IC50 with NCI-H929 cell lines stood at 35.5 nM.

On to `COc1cc2c(cc1Cl)CN(C[C@@H](C)COc1ccnc3c1[C@H](C)CCC3)[C@]21CC[C@](Nc2cccc(Cl)c2)(C(=O)O)CC1` [Example 46, (1s,4S)-5′-chloro-4-(3-chloroanilino)-6′-methoxy-2′-[(2R)-2-methyl-3-{[(5R)-5-methyl-5,6,7,8-tetrahydroquinolin-4-yl]oxy}propyl]-2′,3′-dihydrospiro[cyclohexane-1,1′-isoindole]-4-carboxylic acid], for which the Ki in test [1] (Ki determined from IC50) came to 0.255 nM. Further, the IC50 in the test on NCI-H929 cell lines was determined as 262 nM.

For `COc1ccc2c(c1)[C@]1(CC[C@@](Nc3cccc(Cl)c3)(C(=O)O)CC1)[C@H](C[C@@H](C)COc1ccnc3c1[C@H](C)CCC3)C2` [Example 782, (1r,2′R,4R)-4-(3-chloroanilino)-6′-methoxy-2′-[(2R)-2-methyl-3-{[(5R)-5-methyl-5,6,7,8-tetrahydroquinolin-4-yl]oxy}propyl]-2′,3′-dihydrospiro[cyclohexane-1,1′-indene]-4-carboxylic acid], the inhibition constant (Ki) in test [1] was 0.254 nM. Further, in the test with NCI-H929 cell lines, the IC50 stood at 235 nM.

For `C[C@@H](COc1ccnc2c1[C@H](C)CCC2)CC1Cc2c(Cl)c(Cl)ccc2[C@]12CC[C@@](Nc1cccc(Cl)c1)(C(=O)O)CC2` (single isomer, unassigned) [Example 751], the Ki in test [1] came out at 0.644 nM. The IC50 in the test on NCI-H929 cell lines was found to be 279 nM.

With `C[C@@H](COc1ccnc2c1[C@H](C)CCC2)C[C@H]1Cc2cc3c(cc2[C@]12CC[C@@](Nc1cccc(Cl)c1)(C(=O)O)CC2)OCC3` [Example 850, (1r,4S,6′S)-4-(3-chloroanilino)-6′-[(2R)-2-methyl-3-{[(5R)-5-methyl-5,6,7,8-tetrahydroquinolin-4-yl]oxy}propyl]-2′,3′,5′,6′-tetrahydrospiro[cyclohexane-1,7′-indeno[5,6-b]furan]-4-carboxylic acid], the Ki in test [1] was determined as 0.0173 nM. The IC50 in the test on NCI-H929 cell lines was 50.9 nM.

`COCCNC(=O)OC(C)OC(=O)[C@]1(Nc2cccc(Cl)c2)CC[C@@]2(CC1)c1cc3c(cc1C[C@@H]2C[C@@H](C)COc1ccnc2c1[C@H](C)CCC2)OCO3` (stereo partly drawn) [Example 947, 1-{[(2-methoxyethyl)carbamoyl]oxy}ethyl (1r,4S,6′S)-4-(3-chloroanilino)-6′-[(2R)-2-methyl-3-{[(5R)-5-methyl-5,6,7,8-tetrahydroquinolin-4-yl]oxy}propyl]-6′,7′-dihydro-2′H-spiro[cyclohexane-1,5′-indeno[5,6-d][1,3]dioxole]-4-carboxylate]: the Ki in test [1] amounted to 0.256 nM. In addition, the IC50 in the test on NCI-H929 cell lines amounted to 604 nM.

Regarding `C[C@@H](COc1ccnc2c1[C@H](C)CC[C@H]2C)C[C@H]1Cc2cc3c(cc2[C@]12CC[C@@](Nc1cccc(Cl)c1)(C(=O)O)CC2)OCO3` [Example 960, (1r,4S,6′S)-4-(3-chloroanilino)-6′-[(2R)-3-{[(5R,8R)-5,8-dimethyl-5,6,7,8-tetrahydroquinolin-4-yl]oxy}-2-methylpropyl]-6′,7′-dihydro-2′H-spiro[cyclohexane-1,5′-indeno[5,6-d][1,3]dioxole]-4-carboxylic acid], the Ki in test [1] amounted to 0.0834 nM. In the test with NCI-H929 cell lines, the IC50 came to 77.5 nM.

Consider `C[C@@H](COc1ccnc2c1[C@H](C)CCC2)C[C@H]1Cc2cc3c(cc2[C@]12CC[C@@](Nc1cccc(Cl)c1F)(C(=O)O)CC2)OCO3` [Example 846, (1r,4S,6′S)-4-(3-chloro-2-fluoroanilino)-6′-[(2R)-2-methyl-3-{[(5R)-5-methyl-5,6,7,8-tetrahydroquinolin-4-yl]oxy}propyl]-6′,7′-dihydro-2′H-spiro[cyclohexane-1,5′-indeno[5,6-d][1,3]dioxole]-4-carboxylic acid], for which the Ki in test [1] stood at 0.105 nM. Besides, the IC50 in the test with NCI-H929 cell lines was 42 nM.

`Cc1ccc2c(c1)CN(C[C@@H](C)COc1ccnc3c1[C@H](C)CCC3)[C@]21CC[C@](Nc2ccc(F)c(Cl)c2)(C(=O)O)CC1` [Example 54, (1s,4S)-4-(3-chloro-4-fluoroanilino)-5′-methyl-2′-[(2R)-2-methyl-3-{[(5R)-5-methyl-5,6,7,8-tetrahydroquinolin-4-yl]oxy}propyl]-2′,3′-dihydrospiro[cyclohexane-1,1′-isoindole]-4-carboxylic acid]: the inhibitory constant (Ki) in test [1] (Ki determined from IC50) came out at 0.177 nM. For the same molecule, in the test with NCI-H929 cell lines, the IC50 turned out to be 177 nM.

With `C[C@@H](COc1ccnc2c1[C@H](C)CCC2)C[C@H]1Cc2ccc(-c3ccsc3)cc2[C@]12CC[C@@](Nc1cccc(Cl)c1)(C(=O)O)CC2` [Example 878, (1r,2′S,4S)-4-(3-chloroanilino)-2′-[(2R)-2-methyl-3-{[(5R)-5-methyl-5,6,7,8-tetrahydroquinolin-4-yl]oxy}propyl]-6′-(thiophen-3-yl)-2′,3′-dihydrospiro[cyclohexane-1,1′-indene]-4-carboxylic acid], the Ki in test [1] is 0.386 nM. Further, the IC50 in the test on NCI-H929 cell lines was determined as 1110 nM.

Take `COC[C@@H]1C[C@H]1c1ccc2c(c1)[C@]1(CC[C@@](Nc3cccc(Cl)c3)(C(=O)O)CC1)[C@@H](C[C@@H](C)COc1ccnc3c1[C@H](C)CCC3)C2` [Example 875, (1r,2′S,4S)-4-(3-chloroanilino)-6′-[(1R,2R)-2-(methoxymethyl)cyclopropyl]-2′-[(2R)-2-methyl-3-{[(5R)-5-methyl-5,6,7,8-tetrahydroquinolin-4-yl]oxy}propyl]-2′,3′-dihydrospiro[cyclohexane-1,1′-indene]-4-carboxylic acid]: in test [1], the inhibitory constant (Ki) amounted to 0.0843 nM. Moreover, the IC50 in the test on NCI-H929 cell lines was found to be 59.7 nM.
